Test results taken from ChEMBL document CHEMBL5532657, “Serendipitous discovery of Class I HDAC inhibitors from rational design of molecular glue degraders targeting HDAC” (Eur J Med Chem, 2024).
The source made the active and inactive calls. The rule behind the calls is not given here.

Tests used:
[1] = molecular target: T1, Protein deacetylase HDAC6 (Homo sapiens) (UniProt Q9UBN7); assay: Inhibition of HDAC6 in human RS4-11 cells assessed as effect on alpha-tubulin acetylation by Western blot assay; format: cell-based
T1 sequence (whole entry): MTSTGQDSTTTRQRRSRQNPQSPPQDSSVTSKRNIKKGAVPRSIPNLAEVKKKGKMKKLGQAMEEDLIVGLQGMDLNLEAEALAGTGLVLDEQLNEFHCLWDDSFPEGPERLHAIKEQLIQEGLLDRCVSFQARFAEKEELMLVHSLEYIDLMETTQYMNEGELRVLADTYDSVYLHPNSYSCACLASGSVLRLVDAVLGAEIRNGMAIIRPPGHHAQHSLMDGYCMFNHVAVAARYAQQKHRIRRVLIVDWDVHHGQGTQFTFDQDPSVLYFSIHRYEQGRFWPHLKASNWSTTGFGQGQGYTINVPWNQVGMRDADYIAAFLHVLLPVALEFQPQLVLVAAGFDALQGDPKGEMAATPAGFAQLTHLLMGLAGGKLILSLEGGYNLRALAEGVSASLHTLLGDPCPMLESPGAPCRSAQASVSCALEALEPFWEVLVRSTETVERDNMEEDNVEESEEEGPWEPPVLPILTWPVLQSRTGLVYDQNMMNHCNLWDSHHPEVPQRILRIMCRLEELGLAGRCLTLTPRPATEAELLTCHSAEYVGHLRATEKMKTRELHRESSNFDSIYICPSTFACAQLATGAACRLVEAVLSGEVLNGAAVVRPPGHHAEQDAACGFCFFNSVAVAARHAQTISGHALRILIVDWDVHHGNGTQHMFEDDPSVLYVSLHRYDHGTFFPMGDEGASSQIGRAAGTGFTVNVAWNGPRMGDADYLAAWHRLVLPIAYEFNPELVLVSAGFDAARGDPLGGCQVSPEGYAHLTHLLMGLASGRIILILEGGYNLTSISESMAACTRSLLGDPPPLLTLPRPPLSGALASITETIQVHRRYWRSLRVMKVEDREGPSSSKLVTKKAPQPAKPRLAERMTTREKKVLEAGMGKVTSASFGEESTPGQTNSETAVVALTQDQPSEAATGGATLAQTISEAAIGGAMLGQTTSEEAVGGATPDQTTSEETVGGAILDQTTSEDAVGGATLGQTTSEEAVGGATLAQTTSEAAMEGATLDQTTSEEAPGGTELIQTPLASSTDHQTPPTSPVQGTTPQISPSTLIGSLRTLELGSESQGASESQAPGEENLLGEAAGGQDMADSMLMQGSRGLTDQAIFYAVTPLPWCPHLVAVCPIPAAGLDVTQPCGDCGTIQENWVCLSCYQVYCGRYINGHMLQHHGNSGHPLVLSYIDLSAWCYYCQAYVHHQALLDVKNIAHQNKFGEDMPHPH

Histone deacetylase 1 = Histone deacetylase 1 (Homo sapiens, UniProt Q13547); assay: Induction of HDAC1 degradation in human RS4-11 cells at 0.5 to 10 uM incubated for 12 hrs by Western blotting analysis; format: cell-based; details: dose 0.5-10 µM
Sequence of Histone deacetylase 1 (Q13547 whole entry): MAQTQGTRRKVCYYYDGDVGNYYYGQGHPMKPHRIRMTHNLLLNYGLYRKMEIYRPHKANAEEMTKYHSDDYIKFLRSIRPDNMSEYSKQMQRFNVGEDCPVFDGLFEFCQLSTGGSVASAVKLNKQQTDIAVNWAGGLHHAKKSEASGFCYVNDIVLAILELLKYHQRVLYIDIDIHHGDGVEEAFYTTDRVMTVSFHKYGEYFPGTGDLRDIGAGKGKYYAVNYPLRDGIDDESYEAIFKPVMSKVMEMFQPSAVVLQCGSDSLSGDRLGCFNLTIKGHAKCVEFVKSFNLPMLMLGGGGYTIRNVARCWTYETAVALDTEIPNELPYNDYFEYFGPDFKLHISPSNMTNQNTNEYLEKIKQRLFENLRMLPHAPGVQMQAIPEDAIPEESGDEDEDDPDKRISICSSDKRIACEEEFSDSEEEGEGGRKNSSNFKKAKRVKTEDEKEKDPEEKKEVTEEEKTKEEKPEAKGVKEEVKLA

[2] = molecular target: T1, Protein deacetylase HDAC6 (Homo sapiens); assay: Induction of HDAC6 degradation in human RS4-11 cells at 0.5 to 10 uM incubated for 12 hrs by Western blotting analysis; format: cell-based; details: dose 0.5-10 µM
HeLa = assay: Antiproliferative activity against human HeLa cells assessed as cell growth inhibition at 5 uM incubated for 48 hrs by CCK-8 assay; format: functional, cell-based
A549 = assay: Antiproliferative activity against human A549 cells assessed as cell growth inhibition at 5 uM incubated for 48 hrs by CCK-8 assay; format: functional, cell-based
[3] = molecular target: Histone deacetylase (Homo sapiens) (UniProt Q13547+O15379+Q9UBN7+Q92769+Q9UQL6+Q8WUI4+Q9BY41+Q96DB2+P56524+Q9UKV0+Q969S8); assay: Inhibition of HDAC in human RS4-11 cells assessed as upregulation of histone H3 acetylation by Western blot assay; format: cell-based
HCT-116 = assay: Antiproliferative activity against human HCT-116 cells assessed as cell growth inhibition at 5 uM incubated for 48 hrs by CCK-8 assay; format: functional, cell-based
RPMI-8226 = assay: Antiproliferative activity against human RPMI-8226 cells assessed as cell growth inhibition incubated for 48 hrs by CCK-8 assay; format: functional, cell-based; details: RPMI-8226, 48 h
Histone deacetylase 11 = molecular target: T2, Histone deacetylase 11 (Homo sapiens, UniProt Q96DB2); assay: Inhibition of HDAC11 in human HeLa cells nuclear extract using BocLys(acetyl)-AMC as substrate incubated for 1 hr by fluorescence plate reader analysis; format: subcellular, Nucleus
T2 sequence (Q96DB2 whole entry): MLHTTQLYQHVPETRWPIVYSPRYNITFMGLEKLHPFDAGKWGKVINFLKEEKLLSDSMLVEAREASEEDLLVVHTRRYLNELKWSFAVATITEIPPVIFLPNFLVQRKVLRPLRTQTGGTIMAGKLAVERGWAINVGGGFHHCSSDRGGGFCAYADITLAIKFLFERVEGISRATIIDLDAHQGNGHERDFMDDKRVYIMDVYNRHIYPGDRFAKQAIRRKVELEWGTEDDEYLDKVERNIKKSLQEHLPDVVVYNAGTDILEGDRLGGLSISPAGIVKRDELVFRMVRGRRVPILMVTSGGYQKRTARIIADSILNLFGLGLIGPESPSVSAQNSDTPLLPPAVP

Histone deacetylase 7 = molecular target: T3, Histone deacetylase 7 (Homo sapiens, UniProt Q8WUI4); assay: Inhibition of HDAC7 in human HeLa cells nuclear extract using BocLys(acetyl)-AMC as substrate incubated for 1 hr by fluorescence plate reader analysis; format: subcellular, Nucleus
T3 sequence (Q8WUI4 whole entry): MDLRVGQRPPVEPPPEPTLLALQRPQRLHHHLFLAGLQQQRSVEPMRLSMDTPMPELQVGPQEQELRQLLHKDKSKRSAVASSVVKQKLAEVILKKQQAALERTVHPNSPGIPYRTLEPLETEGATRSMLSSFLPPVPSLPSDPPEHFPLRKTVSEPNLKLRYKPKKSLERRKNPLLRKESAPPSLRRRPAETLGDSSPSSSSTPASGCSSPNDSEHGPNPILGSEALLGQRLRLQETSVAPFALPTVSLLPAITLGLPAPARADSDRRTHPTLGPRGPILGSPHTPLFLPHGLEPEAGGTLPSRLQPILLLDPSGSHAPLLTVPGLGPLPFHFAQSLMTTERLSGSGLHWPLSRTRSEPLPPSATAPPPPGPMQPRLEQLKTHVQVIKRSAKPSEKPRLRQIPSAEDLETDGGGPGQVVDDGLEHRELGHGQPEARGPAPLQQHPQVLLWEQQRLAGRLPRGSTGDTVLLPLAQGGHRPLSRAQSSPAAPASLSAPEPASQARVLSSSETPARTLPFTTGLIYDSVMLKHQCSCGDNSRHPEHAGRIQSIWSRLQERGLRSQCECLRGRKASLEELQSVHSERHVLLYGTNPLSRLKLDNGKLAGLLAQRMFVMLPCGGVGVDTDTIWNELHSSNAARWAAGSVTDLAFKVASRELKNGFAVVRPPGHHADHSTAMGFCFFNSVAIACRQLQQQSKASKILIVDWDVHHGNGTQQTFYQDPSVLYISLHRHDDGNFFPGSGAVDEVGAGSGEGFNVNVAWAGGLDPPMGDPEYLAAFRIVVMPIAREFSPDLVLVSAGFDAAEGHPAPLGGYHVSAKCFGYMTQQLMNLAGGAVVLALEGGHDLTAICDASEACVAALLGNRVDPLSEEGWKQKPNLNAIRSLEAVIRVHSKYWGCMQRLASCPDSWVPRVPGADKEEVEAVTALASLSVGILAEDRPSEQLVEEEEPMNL

U-266 = assay: Antiproliferative activity against human U-266 cells assessed as cell growth inhibition incubated for 48 hrs by CCK-8 assay; format: functional, cell-based; details: U-266, 48 h
Histone deacetylase 9 = Histone deacetylase 9 (Homo sapiens, UniProt Q9UKV0); assay: Inhibition of HDAC9 in human HeLa cells nuclear extract using BocLys(acetyl)-AMC as substrate incubated for 1 hr by fluorescence plate reader analysis; format: subcellular, Nucleus
Sequence of Histone deacetylase 9 (Q9UKV0 whole entry): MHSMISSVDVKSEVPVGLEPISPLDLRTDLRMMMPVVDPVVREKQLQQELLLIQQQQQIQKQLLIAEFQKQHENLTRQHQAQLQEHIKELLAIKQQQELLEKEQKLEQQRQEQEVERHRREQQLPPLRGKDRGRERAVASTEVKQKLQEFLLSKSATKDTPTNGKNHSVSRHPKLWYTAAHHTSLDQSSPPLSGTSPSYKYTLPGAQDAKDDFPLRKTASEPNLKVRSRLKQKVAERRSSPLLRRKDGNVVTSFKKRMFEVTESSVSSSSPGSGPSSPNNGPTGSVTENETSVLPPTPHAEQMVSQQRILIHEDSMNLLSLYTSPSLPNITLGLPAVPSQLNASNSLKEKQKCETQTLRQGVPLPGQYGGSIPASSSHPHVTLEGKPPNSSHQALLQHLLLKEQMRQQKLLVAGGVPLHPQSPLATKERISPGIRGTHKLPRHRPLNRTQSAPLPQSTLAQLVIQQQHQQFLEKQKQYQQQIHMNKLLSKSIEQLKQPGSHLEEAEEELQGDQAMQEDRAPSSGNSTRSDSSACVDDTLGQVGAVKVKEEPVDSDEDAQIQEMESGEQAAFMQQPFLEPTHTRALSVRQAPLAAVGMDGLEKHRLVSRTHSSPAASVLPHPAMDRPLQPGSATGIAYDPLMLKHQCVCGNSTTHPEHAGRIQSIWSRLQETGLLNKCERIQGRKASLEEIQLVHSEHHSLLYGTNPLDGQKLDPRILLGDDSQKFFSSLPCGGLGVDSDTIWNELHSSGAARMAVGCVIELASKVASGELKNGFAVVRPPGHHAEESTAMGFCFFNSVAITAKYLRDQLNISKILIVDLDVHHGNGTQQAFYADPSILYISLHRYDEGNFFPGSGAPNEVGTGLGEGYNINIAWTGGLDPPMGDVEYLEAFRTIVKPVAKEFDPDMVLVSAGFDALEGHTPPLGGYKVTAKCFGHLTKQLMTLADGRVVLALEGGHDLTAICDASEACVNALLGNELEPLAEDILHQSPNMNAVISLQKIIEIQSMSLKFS

RS4-11 = assay: Antiproliferative activity against human RS4-11 cells assessed as cell growth inhibition incubated for 48 hrs by CCK-8 assay; format: functional, cell-based; details: RS4-11, 48 h
Histone deacetylase 2 = Histone deacetylase 2 (Homo sapiens, UniProt Q92769); assay: Inhibition of HDAC2 in human HeLa cells nuclear extract using BocLys(acetyl)-AMC as substrate incubated for 1 hr by fluorescence plate reader analysis; format: subcellular, Nucleus
Sequence of Histone deacetylase 2 (Q92769 whole entry): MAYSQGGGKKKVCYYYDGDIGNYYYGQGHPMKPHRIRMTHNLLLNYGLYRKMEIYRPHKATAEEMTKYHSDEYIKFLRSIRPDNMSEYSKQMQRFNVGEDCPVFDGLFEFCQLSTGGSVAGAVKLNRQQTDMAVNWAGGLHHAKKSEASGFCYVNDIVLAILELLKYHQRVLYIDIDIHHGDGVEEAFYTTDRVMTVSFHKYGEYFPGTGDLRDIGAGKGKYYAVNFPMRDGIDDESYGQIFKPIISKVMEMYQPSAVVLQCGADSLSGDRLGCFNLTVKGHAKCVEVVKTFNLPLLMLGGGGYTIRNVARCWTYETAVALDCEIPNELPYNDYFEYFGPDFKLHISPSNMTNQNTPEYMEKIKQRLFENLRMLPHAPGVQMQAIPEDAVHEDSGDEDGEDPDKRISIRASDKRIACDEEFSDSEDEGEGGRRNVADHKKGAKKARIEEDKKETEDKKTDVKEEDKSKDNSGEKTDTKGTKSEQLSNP

Histone deacetylase 4 = Histone deacetylase 4 (Homo sapiens, UniProt P56524); assay: Inhibition of HDAC4 in human HeLa cells nuclear extract using BocLys(acetyl)-AMC as substrate incubated for 1 hr by fluorescence plate reader analysis; format: subcellular, Nucleus
Sequence of Histone deacetylase 4 (P56524 whole entry): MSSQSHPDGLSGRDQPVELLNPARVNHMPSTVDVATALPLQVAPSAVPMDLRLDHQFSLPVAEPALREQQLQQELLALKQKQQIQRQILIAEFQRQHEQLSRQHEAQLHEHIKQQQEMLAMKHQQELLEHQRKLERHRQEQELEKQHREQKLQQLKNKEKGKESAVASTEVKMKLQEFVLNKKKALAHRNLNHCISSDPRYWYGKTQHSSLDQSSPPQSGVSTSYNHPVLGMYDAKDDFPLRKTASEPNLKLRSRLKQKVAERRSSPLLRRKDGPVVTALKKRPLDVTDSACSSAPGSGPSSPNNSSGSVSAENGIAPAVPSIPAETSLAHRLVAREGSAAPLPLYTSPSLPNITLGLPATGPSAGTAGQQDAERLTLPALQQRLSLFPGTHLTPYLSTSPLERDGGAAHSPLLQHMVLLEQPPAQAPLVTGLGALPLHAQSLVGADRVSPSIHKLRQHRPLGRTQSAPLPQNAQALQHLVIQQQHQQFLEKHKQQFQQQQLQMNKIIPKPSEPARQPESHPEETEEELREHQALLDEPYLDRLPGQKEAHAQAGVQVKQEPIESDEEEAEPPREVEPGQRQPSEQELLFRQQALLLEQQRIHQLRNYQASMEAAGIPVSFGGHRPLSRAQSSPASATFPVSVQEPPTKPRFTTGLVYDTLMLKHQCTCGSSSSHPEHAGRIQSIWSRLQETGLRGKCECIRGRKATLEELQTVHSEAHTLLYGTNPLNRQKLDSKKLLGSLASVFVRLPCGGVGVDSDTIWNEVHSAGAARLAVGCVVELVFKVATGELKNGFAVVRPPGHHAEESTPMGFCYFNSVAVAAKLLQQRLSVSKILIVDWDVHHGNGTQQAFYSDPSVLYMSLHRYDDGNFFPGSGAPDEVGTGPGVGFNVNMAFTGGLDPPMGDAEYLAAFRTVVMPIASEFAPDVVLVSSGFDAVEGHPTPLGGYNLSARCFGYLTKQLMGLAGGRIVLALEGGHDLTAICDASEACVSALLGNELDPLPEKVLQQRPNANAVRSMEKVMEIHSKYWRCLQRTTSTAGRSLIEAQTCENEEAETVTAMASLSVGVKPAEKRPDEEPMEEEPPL

K562 = assay: Antiproliferative activity against human K562 cells assessed as cell growth inhibition incubated for 48 hrs by CCK-8 assay; format: functional, cell-based; details: K562, 48 h

| Compound | Activity [1] | Activity (Histone deacetylase 1) | Activity [2] | Activity (HeLa) | Activity (A549) | inhibition [3] | Activity (HCT-116) | IC50 (RPMI-8226) | IC50 (Histone deacetylase 11) | IC50 (Histone deacetylase 7) | IC50 (U-266) | IC50 (Histone deacetylase 9) | IC50 (RS4-11) | IC50 (Histone deacetylase 2) | IC50 (Histone deacetylase 4) | IC50 (K562) |
| --- | --- | --- | --- | --- | --- | --- | --- | --- | --- | --- | --- | --- | --- | --- | --- | --- |
| O=C(CCCCCCNc1cccc2c1C(=O)N(C1CCC(=O)NC1=O)C2=O)NO (stereo unspecified) | inactive | inactive | inactive | inactive | inactive | Active | inactive | – | – | – | – | – | – | – | – | – |
| Nc1cc(F)ccc1NC(=O)CCCCCCNc1cccc2c1C(=O)N(C1CCC(=O)NC1=O)C2=O (stereo unspecified) | – | inactive | inactive | inactive | inactive | – | inactive | – | – | – | – | – | – | – | – | – |
| Nc1ccccc1NC(=O)CCCCCCCNc1cccc2c1C(=O)N(C1CCC(=O)NC1=O)C2=O (stereo unspecified) | – | inactive | inactive | inactive | inactive | – | inactive | – | – | – | – | – | – | – | – | – |
| Nc1ccc(F)cc1NC(=O)c1ccc(CNC(=O)/C=C/c2cccnc2)cc1 | – | inactive | inactive | inactive | inactive | – | inactive | 4190 nM | > 2000 nM | > 2000 nM | 4810 nM | > 2000 nM | 810 nM | 478 nM | > 2000 nM | 21300 nM |
| CCNNC(=O)CCCCCCNc1cccc2c1C(=O)N(C1CCC(=O)NC1=O)C2=O (stereo unspecified) | – | inactive | inactive | inactive | inactive | – | inactive | – | – | – | – | – | – | – | – | – |
| Nc1cc(F)ccc1NC(=O)CCCNc1cccc2c1C(=O)N(C1CCC(=O)NC1=O)C2=O (stereo unspecified) | – | inactive | inactive | inactive | inactive | – | inactive | – | – | – | – | – | – | – | – | – |
| Nc1ccccc1NC(=O)c1cn(CCOCCOCCOCCNc2cccc3c2C(=O)N(C2CCC(=O)NC2=O)C3=O)nn1 (stereo unspecified) | – | inactive | inactive | inactive | inactive | – | inactive | – | – | – | – | – | – | – | – | – |
| O=C(CCCCNc1cccc2c1C(=O)N(C1CCC(=O)NC1=O)C2=O)NO (stereo unspecified) | – | inactive | inactive | inactive | inactive | – | inactive | – | – | – | – | – | – | – | – | – |
| Nc1ccccc1NC(=O)CCCCCCNc1cccc2c1C(=O)N(C1CCC(=O)NC1=O)C2=O (stereo unspecified) | – | inactive | inactive | inactive | inactive | – | inactive | – | – | – | – | – | – | – | – | – |
